Measurements published in PubChem BioAssay (NCI).
Several values for one entry are separate records, joined by “and”; a condition that tells them apart may be missing. Identical values can stand only once.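 96-well plates; 48 h exposure; 5 concentrations. Endpoints by linear interpolation between flanking doses. Not reached: highest tested concentration assigned. TGI marks complete inhibition of growth.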

Tests used:
Assay in all cases: NCI anticancer screen, dose series, 48 h
SNB-75 CNS = tested on: SNB-75 CNS
SW-620 colon = tested on: SW-620 colon
LXFL 529 NSCLC = tested on: LXFL 529 NSCLC
SK-MEL-2 melanoma = tested on: SK-MEL-2 melanoma
SK-MEL-5 melanoma = tested on: SK-MEL-5 melanoma
NCI-H23 lung = tested on: NCI-H23 lung
MOLT-4 leukemia = tested on: MOLT-4 leukemia
DMS 114 small cell lung = tested on: DMS 114 small cell lung
OVCAR-8 ovarian = tested on: OVCAR-8 ovarian
CAKI-1 renal = tested on: CAKI-1 renal
HL-60(TB) leukemia = tested on: HL-60(TB) leukemia
UACC-257 melanoma = tested on: UACC-257 melanoma
CCRF-CEM leukemia = tested on: CCRF-CEM leukemia
HCC-2998 colon = tested on: HCC-2998 colon
A549 NSCLC = tested on: A549 NSCLC
M14 melanoma = tested on: M14 melanoma
HOP-62 NSCLC = tested on: HOP-62 NSCLC
TK-10 renal = tested on: TK-10 renal
SF-295 CNS = tested on: SF-295 CNS
OVCAR-5 ovarian = tested on: OVCAR-5 ovarian
NCI-H460 lung = tested on: NCI-H460 lung
NCI-H226 lung = tested on: NCI-H226 lung
SK-MEL-28 melanoma = tested on: SK-MEL-28 melanoma
K-562 leukemia = tested on: K-562 leukemia
MALME-3M melanoma = tested on: MALME-3M melanoma
SF-539 CNS = tested on: SF-539 CNS
UO-31 renal = tested on: UO-31 renal
IGROV1 ovarian = tested on: IGROV1 ovarian
SK-OV-3 ovarian = tested on: SK-OV-3 ovarian
DMS 273 small cell lung = tested on: DMS 273 small cell lung
OVCAR-3 ovarian = tested on: OVCAR-3 ovarian
KM12 colon = tested on: KM12 colon
LOX IMVI melanoma = tested on: LOX IMVI melanoma
M19-MEL melanoma = tested on: M19-MEL melanoma
RXF 393 renal = tested on: RXF 393 renal
HT29 colon = tested on: HT29 colon
SF-268 CNS = tested on: SF-268 CNS
SNB-19 CNS = tested on: SNB-19 CNS
KM20L2 colon = tested on: KM20L2 colon
NCI-H522 lung = tested on: NCI-H522 lung
HCT-15 colon = tested on: HCT-15 colon
A498 renal = tested on: A498 renal
786-0 renal = tested on: 786-0 renal
ACHN renal = tested on: ACHN renal
DLD-1 colon = tested on: DLD-1 colon
SNB-78 CNS = tested on: SNB-78 CNS
HCT-116 colon = tested on: HCT-116 colon
RPMI-8226 leukemia = tested on: RPMI-8226 leukemia
COLO 205 colon = tested on: COLO 205 colon
SN12C renal = tested on: SN12C renal
UACC-62 melanoma = tested on: UACC-62 melanoma
U251 CNS = tested on: U251 CNS
EKVX NSCLC = tested on: EKVX NSCLC
SR leukemia = tested on: SR leukemia
MDA-MB-231 breast = tested on: MDA-MB-231 breast
BT-549 breast = tested on: BT-549 breast
T-47D breast = tested on: T-47D breast
MDA-N = tested on: MDA-N
DU-145 prostate = tested on: DU-145 prostate
HOP-92 NSCLC = tested on: HOP-92 NSCLC
HS 578T breast = tested on: HS 578T breast
MCF7 breast = tested on: MCF7 breast
HOP-18 NSCLC = tested on: HOP-18 NSCLC
PC-3 prostate = tested on: PC-3 prostate
OVCAR-4 ovarian = tested on: OVCAR-4 ovarian

## COc1nc(=O)cc(N)n1C1OC(CO)C(O)C1O (configuration not stated)
SNB-75 CNS
  TGI: > 100 µM
SW-620 colon
  TGI: > 100 µM
LXFL 529 NSCLC
  TGI: > 100 µM
SK-MEL-2 melanoma
  TGI: > 100 µM
SK-MEL-5 melanoma
  TGI: > 100 µM
NCI-H23 lung
  TGI: > 100 µM
MOLT-4 leukemia
  TGI: > 100 µM
DMS 114 small cell lung
  TGI: > 100 µM
OVCAR-8 ovarian
  TGI: > 100 µM
CAKI-1 renal
  TGI: > 100 µM
HL-60(TB) leukemia
  TGI: > 100 µM
UACC-257 melanoma
  TGI: > 100 µM
CCRF-CEM leukemia
  TGI: > 100 µM
HCC-2998 colon
  TGI: > 100 µM
A549 NSCLC
  TGI: > 100 µM
M14 melanoma
  TGI: > 100 µM
HOP-62 NSCLC
  TGI: > 100 µM
TK-10 renal
  TGI: > 100 µM
SF-295 CNS
  TGI: > 100 µM
OVCAR-5 ovarian
  TGI: > 100 µM
NCI-H460 lung
  TGI: > 100 µM
NCI-H226 lung
  TGI: > 100 µM
SK-MEL-28 melanoma
  TGI: > 100 µM
K-562 leukemia
  TGI: > 100 µM
MALME-3M melanoma
  TGI: > 100 µM
SF-539 CNS
  TGI: > 100 µM
UO-31 renal
  TGI: > 100 µM
IGROV1 ovarian
  TGI: > 100 µM
SK-OV-3 ovarian
  TGI: > 100 µM
DMS 273 small cell lung
  TGI: > 100 µM
OVCAR-3 ovarian
  TGI: > 100 µM
KM12 colon
  TGI: > 100 µM
LOX IMVI melanoma
  TGI: > 100 µM
M19-MEL melanoma
  TGI: > 100 µM
RXF 393 renal
  TGI: > 100 µM
HT29 colon
  TGI: > 100 µM
SF-268 CNS
  TGI: > 100 µM
SNB-19 CNS
  TGI: > 100 µM
KM20L2 colon
  TGI: > 100 µM
NCI-H522 lung
  TGI: > 100 µM
HCT-15 colon
  TGI: > 100 µM
A498 renal
  TGI: > 100 µM
786-0 renal
  TGI: > 100 µM
ACHN renal
  TGI: > 100 µM
DLD-1 colon
  TGI: > 100 µM
SNB-78 CNS
  TGI: > 100 µM
HCT-116 colon
  TGI: > 100 µM
RPMI-8226 leukemia
  TGI: > 100 µM
COLO 205 colon
  TGI: > 100 µM
SN12C renal
  TGI: > 100 µM
UACC-62 melanoma
  TGI: > 100 µM
U251 CNS
  TGI: > 100 µM
EKVX NSCLC
  TGI: > 100 µM

## C=C[C@]1(C)CC(O)C2C(=C)C(=O)OC2[C@H]1C(=C)C=O (some centres not stated)
SNB-75 CNS
  TGI: 47.9 µM
SW-620 colon
  TGI: 4.19 µM
LXFL 529 NSCLC
  TGI: 3.47 µM
SK-MEL-2 melanoma
  TGI: 13.4 µM
SK-MEL-5 melanoma
  TGI: 6.66 µM
NCI-H23 lung
  TGI: 7.62 µM
MOLT-4 leukemia
  TGI: 21.8 µM
DMS 114 small cell lung
  TGI: 22.6 µM
OVCAR-8 ovarian
  TGI: 6.74 µM
CAKI-1 renal
  TGI: 13.5 µM
HL-60(TB) leukemia
  TGI: 2.41 µM
UACC-257 melanoma
  TGI: 4.31 µM
CCRF-CEM leukemia
  TGI: 4.4 µM
HCC-2998 colon
  TGI: 27.9 µM
A549 NSCLC
  TGI: 43.6 µM
M14 melanoma
  TGI: 8.18 µM
HOP-62 NSCLC
  TGI: 34 µM
TK-10 renal
  TGI: 11.4 µM
SF-295 CNS
  TGI: 30.2 µM
SR leukemia
  TGI: 20 µM
OVCAR-5 ovarian
  TGI: 24.8 µM
NCI-H460 lung
  TGI: 31.8 µM
NCI-H226 lung
  TGI: 13.9 µM
MDA-MB-231 breast
  TGI: 10.3 µM
SK-MEL-28 melanoma
  TGI: 4.37 µM
K-562 leukemia
  TGI: 8.52 µM
MALME-3M melanoma
  TGI: 3.62 µM
SF-539 CNS
  TGI: 10.5 µM
BT-549 breast
  TGI: 15.8 µM
UO-31 renal
  TGI: 13.7 µM
T-47D breast
  TGI: 9.35 µM
IGROV1 ovarian
  TGI: 25 µM
MDA-N
  TGI: 36.8 µM
SK-OV-3 ovarian
  TGI: 66.2 µM
DU-145 prostate
  TGI: 27.1 µM
OVCAR-3 ovarian
  TGI: 7.24 µM
KM12 colon
  TGI: 12.5 µM
HOP-92 NSCLC
  TGI: 6.08 µM
HS 578T breast
  TGI: > 100 µM
LOX IMVI melanoma
  TGI: 4.6 µM
M19-MEL melanoma
  TGI: 7.98 µM
RXF 393 renal
  TGI: 4.83 µM
HT29 colon
  TGI: 7.05 µM
MCF7 breast
  TGI: 3.18 µM
SF-268 CNS
  TGI: 8.21 µM
SNB-19 CNS
  TGI: 44.1 µM
KM20L2 colon
  TGI: 17.4 µM
NCI-H522 lung
  TGI: 2.35 µM
HCT-15 colon
  TGI: 7.22 µM
A498 renal
  TGI: 14.7 µM
786-0 renal
  TGI: 4.47 µM
HOP-18 NSCLC
  TGI: 15.1 µM
ACHN renal
  TGI: 6.33 µM
PC-3 prostate
  TGI: 10 µM
DLD-1 colon
  TGI: 6.73 µM
SNB-78 CNS
  TGI: 13.4 µM
HCT-116 colon
  TGI: 3.26 µM
RPMI-8226 leukemia
  TGI: 5.94 µM
COLO 205 colon
  TGI: 21.7 µM
SN12C renal
  TGI: 5.88 µM
OVCAR-4 ovarian
  TGI: 17.7 µM
UACC-62 melanoma
  TGI: 3.83 µM
U251 CNS
  TGI: 24.8 µM
EKVX NSCLC
  TGI: 33.7 µM

## COc1cc2c(cc1OC)-c1cc(OC)c(OC)cc1[C@H]1CN3CCC[C@@]3(O)C=C21
SK-MEL-2 melanoma
  TGI: < 0.0001 µM
SK-MEL-5 melanoma
  TGI: 0.000139 µM
NCI-H23 lung
  TGI: 0.000267 µM
DMS 114 small cell lung
  TGI: 0.00117 µM
CAKI-1 renal
  TGI: 0.000403 µM
HL-60(TB) leukemia
  TGI: < 0.0001 µM
HCC-2998 colon
  TGI: 0.0437 µM
A549 NSCLC
  TGI: 0.106 µM and 0.414 µM
M14 melanoma
  TGI: 0.000105 µM
TK-10 renal
  TGI: 0.161 µM
SR leukemia
  TGI: < 0.0001 µM
NCI-H226 lung
  TGI: 0.00253 µM
K-562 leukemia
  TGI: 0.101 µM and 0.0521 µM
MALME-3M melanoma
  TGI: < 0.0001 µM
DMS 273 small cell lung
  TGI: 0.000208 µM
KM12 colon
  TGI: 0.00316 µM and 0.0152 µM
M19-MEL melanoma
  TGI: 0.000362 µM
RXF 393 renal
  TGI: 0.0126 µM
NCI-H522 lung
  TGI: < 0.0001 µM
HOP-18 NSCLC
  TGI: 0.000164 µM
ACHN renal
  TGI: 0.000787 µM
SNB-78 CNS
  TGI: 0.00164 µM
HCT-116 colon
  TGI: 0.0101 µM
COLO 205 colon
  TGI: < 0.0001 µM
OVCAR-4 ovarian
  TGI: 0.0032 µM and 0.0117 µM
